In general, Km refers to the substrate concentration at which the rate is half of its maximum.

The assay has as its system thermostable β-glucosidase AR19G-228-1 (GH family 1), SEQ ID NO: 2, from hot spring soil metagenome AR19, expressed in E. coli. Nature of the assay: Kinetics of PNPG hydrolysis by AR19G-228-1 β-glucosidase. The class given is biochemical. The settings on record: 100° C., acetate buffer pH 5.5. An excerpt:
The β-glucosidase activity using PNPG as a substrate of the enzyme protein (AR19G-228-1) encoded by the AR19G-228-1 gene was investigated. A solution prepared by dissolving PNPG (manufactured by Sigma-Aldrich Co. LLC.) in water and adjusting to a predetermined final concentration was used as the substrate solution. It should be noted that the PNPG substrate solutions used in the experiments described below all used the PNPG aqueous solution prepared by the above method. PNPG (manufactured by Sigma-Aldrich Co. LLC.) was used as the substrate for measuring the β-glucosidase activity. In the measurements, the purified enzyme obtained in section <7> above was diluted to a concentration of 0.0075 mg/mL with 0.05 M Tris-HCl buffer (pH 8.0) and used.
For the reaction at a temperature of 50 to 90° C., a Thermomixer (manufactured by the Eppendorf AG) was used, a sample tube with a volume of 1.5 mL was used as a reaction vessel, and the amount of reaction solution was set to 200 μL. The reaction solution was composed of 5 μL of diluted purified enzyme, 45 μL of purified water, 50 μL of 200 mM acetate buffer (pH 5.5), and 100 μL of 60 mM PNPG aqueous solution. […]
In all measurements, a mixed solution prepared by replacing the purified enzyme solution with 50 mM Tris-HCl buffer (pH 8.0) and then reacting the solution under the same conditions was used as a control. […] The amount of p-nitrophenol in the supernatant was determined by measuring the absorbance at 420 nm using a spectrophotometer, calculating the amount of p-nitrophenol in the supernatant using a calibration curve prepared with p-nitrophenol, and then determining the amount of p-nitrophenol produced by the enzymatic hydrolysis by the difference from the control. […] In addition, each measurement was performed for three independent experiments, and a mean value and a standard error were determined. […]

Take `O=[N+]([O-])c1ccc(O[C@@H]2O[C@H](CO)[C@@H](O)[C@H](O)[C@H]2O)cc1` [PNPG, p-nitrophenyl-β-D-glucopyranoside]: where the note is “PNPG 0.5-100 mM”, the Km amounted to 4.5 mM and the Vmax is on record as 430.3 U/mg. For the same molecule, the Kcat/Km (PNPG, calculated from Vmax and Km) was 91500 M⁻¹ s⁻¹.

Source of the values: patent US9512414B2, “Thermostable beta-glucosidase” (HONDA MOTOR CO., LTD., priority 2014, dated 2016).
